Test results published in ChEMBL document CHEMBL5537136 (J Med Chem, 2024).
Calls of active or inactive are those of the source. The rule behind the calls is not given here.

Experiments:
[1] = target: Poly [ADP-ribose] polymerase 2 (Homo sapiens, UniProt Q9UGN5); assay: Inhibition of PARP2 (unknown origin) measured after 1 hr incubation by microplate reader assay
[2] = target: T1, Poly [ADP-ribose] polymerase tankyrase-2 (Homo sapiens, UniProt Q9H2K2); assay: Inhibition of TNKS2 (unknown origin) measured after 1 hr incubation by microplate reader assay
T1 sequence (Q9H2K2 whole entry): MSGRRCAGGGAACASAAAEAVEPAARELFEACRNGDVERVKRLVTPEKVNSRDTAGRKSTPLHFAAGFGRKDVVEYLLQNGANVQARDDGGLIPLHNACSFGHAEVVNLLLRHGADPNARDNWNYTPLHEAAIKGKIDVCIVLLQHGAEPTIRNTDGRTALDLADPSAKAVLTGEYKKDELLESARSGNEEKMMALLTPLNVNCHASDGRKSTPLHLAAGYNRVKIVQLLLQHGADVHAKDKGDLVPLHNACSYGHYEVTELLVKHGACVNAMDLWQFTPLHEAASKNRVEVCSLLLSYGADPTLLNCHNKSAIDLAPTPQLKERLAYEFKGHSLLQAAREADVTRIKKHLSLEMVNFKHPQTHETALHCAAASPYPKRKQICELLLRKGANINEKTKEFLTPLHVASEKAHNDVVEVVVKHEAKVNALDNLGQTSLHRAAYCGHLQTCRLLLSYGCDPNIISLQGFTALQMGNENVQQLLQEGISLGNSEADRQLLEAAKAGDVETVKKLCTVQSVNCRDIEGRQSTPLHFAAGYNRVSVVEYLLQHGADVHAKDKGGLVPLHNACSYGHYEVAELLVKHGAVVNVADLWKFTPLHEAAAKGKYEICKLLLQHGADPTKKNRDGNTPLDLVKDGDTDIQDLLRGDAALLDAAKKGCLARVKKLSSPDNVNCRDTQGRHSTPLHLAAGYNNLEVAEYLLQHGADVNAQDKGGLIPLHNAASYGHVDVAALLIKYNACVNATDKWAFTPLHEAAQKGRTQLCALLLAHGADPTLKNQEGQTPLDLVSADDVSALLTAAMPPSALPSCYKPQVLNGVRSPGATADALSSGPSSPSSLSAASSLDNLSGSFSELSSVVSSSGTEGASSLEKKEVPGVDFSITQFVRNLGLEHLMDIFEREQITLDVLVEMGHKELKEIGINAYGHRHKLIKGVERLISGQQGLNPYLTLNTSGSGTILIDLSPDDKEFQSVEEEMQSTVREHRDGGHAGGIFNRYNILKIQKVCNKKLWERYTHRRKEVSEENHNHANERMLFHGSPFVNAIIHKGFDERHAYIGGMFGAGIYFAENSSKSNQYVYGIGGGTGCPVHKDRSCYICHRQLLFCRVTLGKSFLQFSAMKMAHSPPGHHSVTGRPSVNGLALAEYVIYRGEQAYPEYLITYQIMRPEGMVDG

[3] = Permeability across basolateral to apical side in human Caco-2 cells; type: ADME, cell-based
[4] = Cmax in ICR mouse at 1 mg/kg, iv measured upto 24 hrs by LC-MS/MS analysis; type: ADME, organism-based; settings: in vivo
[5] = MRT (0 to infinity) in ICR mouse at 10 mg/kg, IG measured upto 24 hrs by LC-MS/MS analysis; type: ADME, organism-based; settings: in vivo, po
[6] = Toxicity in Balb/c mouse bearing mouse CT26 cells assessed as morphological changes in spleen at 6.25 to 25 mg/kg, IG measured after 14 days by hematoxylin and eosin staining based assay; type: organism-based; settings: in vivo, po, 336 h, dose 6.25-25 mg/kg, time 14 day
CT26 [7] = assay: Antitumor activity against mouse CT26 cells implanted in Balb/c mouse assessed as increase in infiltration of CD3 positive CD4 positive T lymphocytes in tumors at 25 mg/kg, IG measured after 14 days by flow cytometry; type: functional, organism-based; settings: time 14.0 day
CT26 [8] = assay: Antitumor activity against mouse CT26 cells implanted in Balb/c mouse assessed as increase in infiltration CD8 positive T cells in tumors at 25 mg/kg, IG measured after 14 days by flow cytometry; type: functional, organism-based; settings: time 14.0 day

Sequence of Poly [ADP-ribose] polymerase 2 (Q9UGN5 whole entry): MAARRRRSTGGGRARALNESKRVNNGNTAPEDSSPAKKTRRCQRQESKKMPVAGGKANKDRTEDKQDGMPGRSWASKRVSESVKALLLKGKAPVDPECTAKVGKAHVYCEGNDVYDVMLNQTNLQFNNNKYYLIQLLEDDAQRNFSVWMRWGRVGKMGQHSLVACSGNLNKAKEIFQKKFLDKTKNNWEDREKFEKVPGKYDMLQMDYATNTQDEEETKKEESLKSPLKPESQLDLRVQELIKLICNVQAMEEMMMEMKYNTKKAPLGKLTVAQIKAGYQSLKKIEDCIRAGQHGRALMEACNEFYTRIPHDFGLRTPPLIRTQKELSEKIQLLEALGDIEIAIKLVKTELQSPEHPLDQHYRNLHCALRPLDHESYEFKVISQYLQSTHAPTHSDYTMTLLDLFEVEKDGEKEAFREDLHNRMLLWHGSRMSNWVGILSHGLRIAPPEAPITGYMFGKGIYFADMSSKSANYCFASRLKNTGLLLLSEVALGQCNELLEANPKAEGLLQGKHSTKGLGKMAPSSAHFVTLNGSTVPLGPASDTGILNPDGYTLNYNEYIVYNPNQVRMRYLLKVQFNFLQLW

With `C[C@@H](C(=O)N1CCN(c2ncc(C(F)(F)F)cn2)CC1)n1cc2cccc(C(N)=O)c2n1` the IC50 [1] was 303 nM, the IC50 [2] was 694 nM and the Papp B→A [3] was 20.7 ×10⁻⁶ cm/s. The Cmax [4] was 1360 ng/mL, the MRT inf [5] was 2.52 h and the Activity [6] was “Non-Toxic”. The Activity (CT26 [7]) was “Active” and the Activity (CT26 [8]) was “Active”.
